Data as given in PMC5218480 (PLoS ONE, 2017).

System: MV-4-11 cells
Experiment: Gene expression microarray analysis (Affymetrix PrimeView) and GSEA
Format: cell-based, human
Design: RFU PODN (11730768_x_at) / Fold change /veh PODN (11730768_x_at) / RFU LINC00158 (11744669_a_at) / Fold change /veh LINC00158 (11744669_a_at) / RFU DUSP10 (11751237_a_at) / Fold change /veh DUSP10 (11751237_a_at) / RFU ID3 (11757404_x_at) / Fold change /veh ID3 (11757404_x_at) / RFU PLEKHG5 (11737974_s_at) / Fold change /veh PLEKHG5 (11737974_s_at) / RFU LRRC4B (11730491_at) / Fold change /veh LRRC4B (11730491_at) / RFU GIMAP4 (11747438_a_at) / Fold change /veh GIMAP4 (11747438_a_at) / RFU KRT8 (11758183_x_at) / Fold change /veh KRT8 (11758183_x_at) / RFU CNN1 (11734310_a_at) / Fold change /veh CNN1 (11734310_a_at) / RFU VPS37D (11726825_at) / Fold change /veh VPS37D (11726825_at) / RFU C10orf10 (11716522_x_at) / Fold change /veh C10orf10 (11716522_x_at) / RFU KIR2DL2 /// KIR2DL4 /// KIR2DL5A /// KIR2DL5B /// KIR2DS1 /// KIR2DS2 /// KIR2DS3 /// KIR2DS4 /// KIR3DL3 /// KIR3DL3 /// KIR3DS1 (11738374_at) / Fold change /veh KIR2DL2 /// KIR2DL4 /// KIR2DL5A /// KIR2DL5B /// KIR2DS1 /// KIR2DS2 /// KIR2DS3 /// KIR2DS4 /// KIR3DL3 /// KIR3DL3 /// KIR3DS1 (11738374_at) / RFU C1QL1 (11718748_at) / Fold change /veh C1QL1 (11718748_at) / RFU TMPRSS4 (11747572_a_at) / Fold change /veh TMPRSS4 (11747572_a_at) / RFU HAMP (11756126_x_at) / Fold change /veh HAMP (11756126_x_at) / RFU RNFT2 (11725882_a_at) / Fold change /veh RNFT2 (11725882_a_at) / RFU NR4A2 (11747474_a_at) / Fold change /veh NR4A2 (11747474_a_at) / RFU ABCC12 (11746883_a_at) / Fold change /veh ABCC12 (11746883_a_at) / RFU TMEM136 (11760407_x_at) / Fold change /veh TMEM136 (11760407_x_at) / RFU CLDN22 /// WWC2 (11732394_at) / Fold change /veh CLDN22 /// WWC2 (11732394_at) / RFU HLA-DPB1 (11760878_x_at) / Fold change /veh HLA-DPB1 (11760878_x_at) / RFU SPINT1 (11716480_a_at) / Fold change /veh SPINT1 (11716480_a_at) / RFU GAP43 (11754022_s_at) / Fold change /veh GAP43 (11754022_s_at) / RFU A4GNT (11735810_at) / Fold change /veh A4GNT (11735810_at) / RFU PRB3 (11715151_x_at) / Fold change /veh PRB3 (11715151_x_at) / RFU TUBB4B (11761932_at) / Fold change /veh TUBB4B (11761932_at) / RFU CAPN14 (11732068_a_at) / Fold change /veh CAPN14 (11732068_a_at) / RFU TMCC2 (11721928_a_at) / Fold change /veh TMCC2 (11721928_a_at) / RFU IRGQ (11745062_a_at) / Fold change /veh IRGQ (11745062_a_at) / RFU FAM174B (11720279_a_at) / Fold change /veh FAM174B (11720279_a_at) / RFU TMPRSS4 (11748680_a_at) / Fold change /veh TMPRSS4 (11748680_a_at) / RFU FAM212B (11763350_a_at) / Fold change /veh FAM212B (11763350_a_at) / RFU PLEKHG5 (11743358_a_at) / Fold change /veh PLEKHG5 (11743358_a_at) / RFU ZSCAN30 (11745921_a_at) / Fold change /veh ZSCAN30 (11745921_a_at) / RFU CMKLR1 (11741424_a_at) / Fold change /veh CMKLR1 (11741424_a_at) / RFU LOC101060620 /// MAPK8IP1 (11723275_at) / Fold change /veh LOC101060620 /// MAPK8IP1 (11723275_at) / RFU SPTSSB (11747773_x_at) / Fold change /veh SPTSSB (11747773_x_at) / RFU PRSS12 (11739890_at) / Fold change /veh PRSS12 (11739890_at) / RFU BIN1 (11741810_x_at) / Fold change /veh BIN1 (11741810_x_at) / RFU WNT11 (11732464_a_at) / Fold change /veh WNT11 (11732464_a_at) / RFU C10orf10 (11716521_a_at) / Fold change /veh C10orf10 (11716521_a_at) / RFU C5orf56 (11738089_at) / Fold change /veh C5orf56 (11738089_at) / RFU CYB561 (11721691_x_at) / Fold change /veh CYB561 (11721691_x_at) / RFU ANKRD19P (11752326_a_at) / Fold change /veh ANKRD19P (11752326_a_at) / RFU OR2T12 /// OR2T33 /// OR2T8 (11738714_s_at) / Fold change /veh OR2T12 /// OR2T33 /// OR2T8 (11738714_s_at) / RFU VCAN (11748164_a_at) / Fold change /veh VCAN (11748164_a_at) / RFU JSRP1 (11732532_at) / Fold change /veh JSRP1 (11732532_at) / RFU KRTAP10-11 (11738290_x_at) / Fold change /veh KRTAP10-11 (11738290_x_at) / RFU MYO3A (11730013_a_at) / Fold change /veh MYO3A (11730013_a_at) / RFU EBF3 (11725865_a_at) / Fold change /veh EBF3 (11725865_a_at) / RFU CAMK2N1 (11719241_x_at) / Fold change /veh CAMK2N1 (11719241_x_at) / RFU C5orf56 (11738088_a_at) / Fold change /veh C5orf56 (11738088_a_at) / RFU OLFML3 (11715873_a_at) / Fold change /veh OLFML3 (11715873_a_at) / RFU LOC100653217 /// NTM (11731650_a_at) / Fold change /veh LOC100653217 /// NTM (11731650_a_at) / RFU MAPK11 (11762145_a_at) / Fold change /veh MAPK11 (11762145_a_at) / RFU FIZ1 (11724087_x_at) / Fold change /veh FIZ1 (11724087_x_at) / RFU OASL (11726364_x_at) / Fold change /veh OASL (11726364_x_at) / RFU SOX15 (11748057_x_at) / Fold change /veh SOX15 (11748057_x_at) / RFU CD79A (11719716_a_at) / Fold change /veh CD79A (11719716_a_at) / RFU HIST1H1D (11736915_at) / Fold change /veh HIST1H1D (11736915_at) / RFU CASKIN2 (11723855_a_at) / Fold change /veh CASKIN2 (11723855_a_at) / RFU LOC730098 (11760151_x_at) / Fold change /veh LOC730098 (11760151_x_at) / RFU OR4N2 (11742367_at) / Fold change /veh OR4N2 (11742367_at) / RFU PRRT2 (11749266_a_at) / Fold change /veh PRRT2 (11749266_a_at) / RFU SNX32 (11753110_a_at) / Fold change /veh SNX32 (11753110_a_at) / RFU CDHR5 (11726645_a_at) / Fold change /veh CDHR5 (11726645_a_at) / RFU RCAN1 (11760418_a_at) / Fold change /veh RCAN1 (11760418_a_at) / RFU FAM167A (11723789_a_at) / Fold change /veh FAM167A (11723789_a_at) / RFU FAM26E (11764081_at) / Fold change /veh FAM26E (11764081_at) / RFU ISYNA1 (11749810_s_at) / Fold change /veh ISYNA1 (11749810_s_at) / RFU ACY1 (11761880_at) / Fold change /veh ACY1 (11761880_at) / RFU 11764098_at / Fold change /veh 11764098_at / RFU SAMD14 (11745864_x_at) / Fold change /veh SAMD14 (11745864_x_at) / RFU NPB (11741838_a_at) / Fold change /veh NPB (11741838_a_at) / RFU TMPRSS6 (11731388_a_at) / Fold change /veh TMPRSS6 (11731388_a_at) / RFU KRTAP10-2 (11738614_at) / Fold change /veh KRTAP10-2 (11738614_at) / RFU ARHGAP8 /// PRR5-ARHGAP8 (11727945_x_at) / Fold change /veh ARHGAP8 /// PRR5-ARHGAP8 (11727945_x_at) / RFU KRTAP5-7 /// NADSYN1 (11734609_at) / Fold change /veh KRTAP5-7 /// NADSYN1 (11734609_at) / RFU RASL12 (11751679_a_at) / Fold change /veh RASL12 (11751679_a_at) / RFU CDKN2B (11736163_a_at) / Fold change /veh CDKN2B (11736163_a_at) / RFU PRF1 (11729649_at) / Fold change /veh PRF1 (11729649_at) / RFU, ZNF638 /// ZNF638-IT1 / Fold change vs veh, ZNF638 /// ZNF638-IT1 / RFU, PANK3 / Fold change vs veh, PANK3 / RFU, SH3YL1 / Fold change vs veh, SH3YL1 / RFU, ZEB2 / Fold change vs veh, ZEB2 / RFU, NRIP1 / Fold change vs veh, NRIP1 / RFU, PTTG1IP / Fold change vs veh, PTTG1IP / RFU, CAPN2 / Fold change vs veh, CAPN2 / RFU, MED14 / Fold change vs veh, MED14 / RFU, SNORA58 / Fold change vs veh, SNORA58 / RFU, C1orf63 / Fold change vs veh, C1orf63 / RFU, LRRFIP1 / Fold change vs veh, LRRFIP1 / RFU, NDUFAF7 / Fold change vs veh, NDUFAF7 / RFU, SLC12A2 / Fold change vs veh, SLC12A2 / RFU, IBTK / Fold change vs veh, IBTK / RFU, ESF1 / Fold change vs veh, ESF1 / Fold change vs veh, TMEM50B / RFU, TAOK1 / Fold change vs veh, TAOK1 / RFU, ACBD3 / Fold change vs veh, ACBD3 / RFU, TMA16 / Fold change vs veh, TMA16 / RFU, RWDD3 / Fold change vs veh, RWDD3 / RFU, BCAT1 / Fold change vs veh, BCAT1 / RFU, EDEM3 / Fold change vs veh, EDEM3 / RFU, TMEM33 / Fold change vs veh, TMEM33 / RFU, WDR75 / Fold change vs veh, WDR75 / RFU, AHCTF1 / Fold change vs veh, AHCTF1 / RFU, TFRC / Fold change vs veh, TFRC / RFU, ZDHHC17 / Fold change vs veh, ZDHHC17 / RFU, NOM1 / Fold change vs veh, NOM1 / RFU, ARL8B / Fold change vs veh, ARL8B / RFU, ZBTB11 / Fold change vs veh, ZBTB11 / RFU, TAMM41 / Fold change vs veh, TAMM41 / RFU, KIAA1704 /// LOC100996395 / Fold change vs veh, KIAA1704 /// LOC100996395 / RFU, ING1 / Fold change vs veh, ING1 / RFU, TRMT61B / Fold change vs veh, TRMT61B / RFU, FUBP3 / Fold change vs veh, FUBP3 / RFU, TP53 / Fold change vs veh, TP53 / RFU, TNKS2 / Fold change vs veh, TNKS2 / RFU, ZFP14 / Fold change vs veh, ZFP14 / RFU, ACTR2 / Fold change vs veh, ACTR2 / RFU, PPP3R1 / Fold change vs veh, PPP3R1 / RFU, PIK3R1 / Fold change vs veh, PIK3R1 / RFU, HNRNPA1 / Fold change vs veh, HNRNPA1 / RFU, RNF170 / Fold change vs veh, RNF170 / RFU, ZNF28 / Fold change vs veh, ZNF28 / RFU, RNGTT / Fold change vs veh, RNGTT / RFU, OGT / Fold change vs veh, OGT / RFU, BRD1 / Fold change vs veh, BRD1 / RFU, MARS / Fold change vs veh, MARS / RFU, ZNF655 / Fold change vs veh, ZNF655 / RFU, FAHD1 / Fold change vs veh, FAHD1 / RFU, BDP1 / Fold change vs veh, BDP1 / RFU, LRRCC1 / Fold change vs veh, LRRCC1 / RFU, ARID1A / Fold change vs veh, ARID1A / RFU, ZNF146 / Fold change vs veh, ZNF146 / RFU, ZNF330 / Fold change vs veh, ZNF330 / RFU, GPN3 / Fold change vs veh, GPN3 / RFU, C9orf123 / Fold change vs veh, C9orf123 / RFU, N4BP2L2 / Fold change vs veh, N4BP2L2 / RFU, ARFIP1 / Fold change vs veh, ARFIP1 / RFU, FAM179B / Fold change vs veh, FAM179B / RFU, BCL10 / Fold change vs veh, BCL10 / RFU, UHRF1BP1L / Fold change vs veh, UHRF1BP1L / RFU, BET1 / Fold change vs veh, BET1 / RFU, CNOT2 / Fold change vs veh, CNOT2 / RFU, ZNF268 / Fold change vs veh, ZNF268 / Fold change vs veh, ZNF507 / RFU, DGCR2 / Fold change vs veh, DGCR2 / RFU, WDSUB1 / Fold change vs veh, WDSUB1 / Fold change vs veh, HSP90B1 /// MIR3652 / RFU, ADSS / Fold change vs veh, ADSS / RFU, GK / Fold change vs veh, GK / RFU, ZNF148 / Fold change vs veh, ZNF148 / RFU, TAF9 / Fold change vs veh, TAF9 / RFU, SLC1A5 / Fold change vs veh, SLC1A5 / RFU, SLMO2 / Fold change vs veh, SLMO2 / RFU, ABCC4 / Fold change vs veh, ABCC4 / RFU, LOC101060439 /// RAP1B / Fold change vs veh, LOC101060439 /// RAP1B / RFU, RFX7 / Fold change vs veh, RFX7 / RFU, GTPBP10 / Fold change vs veh, GTPBP10 / RFU, CNEP1R1 / Fold change vs veh, CNEP1R1 / RFU, BIVM-ERCC5 /// ERCC5 / Fold change vs veh, BIVM-ERCC5 /// ERCC5 / RFU, ILF3 / Fold change vs veh, ILF3 / RFU 11762660_at / Fold change /veh 11762660_at / RFU VCAN (11757783_s_at) / Fold change /veh VCAN (11757783_s_at) / RFU DDX43 (11728927_at) / Fold change /veh DDX43 (11728927_at) / RFU KRT8 (11758188_x_at) / Fold change /veh KRT8 (11758188_x_at) / RFU NKD1 (11759106_at) / Fold change /veh NKD1 (11759106_at) / RFU SRD5A1 (11742802_a_at) / Fold change /veh SRD5A1 (11742802_a_at) / RFU TPSAB1 /// TPSB2 (11721975_s_at) / Fold change /veh TPSAB1 /// TPSB2 (11721975_s_at) / RFU GSTM3 (11746129_a_at) / Fold change /veh GSTM3 (11746129_a_at) / RFU IL23R (11737362_x_at) / Fold change /veh IL23R (11737362_x_at) / RFU TMEM51 (11727254_a_at) / Fold change /veh TMEM51 (11727254_a_at) / RFU PIWIL2 (11732686_x_at) / Fold change /veh PIWIL2 (11732686_x_at) / RFU ORM1 (11744905_x_at) / Fold change /veh ORM1 (11744905_x_at) / RFU CCDC152 (11743942_at) / Fold change /veh CCDC152 (11743942_at) / RFU ECM1 (11717891_a_at) / Fold change /veh ECM1 (11717891_a_at) / RFU IL23R (11748794_a_at) / Fold change /veh IL23R (11748794_a_at) / RFU TNFAIP8L3 (11732012_x_at) / Fold change /veh TNFAIP8L3 (11732012_x_at) / RFU MBOAT4 (11741988_at) / Fold change /veh MBOAT4 (11741988_at) / RFU 11764193_at / Fold change /veh 11764193_at / RFU TMEM53 (11763286_at) / Fold change /veh TMEM53 (11763286_at) / RFU MAGEB2 (11727129_at) / Fold change /veh MAGEB2 (11727129_at) / RFU TMEM200A (11744735_a_at) / Fold change /veh TMEM200A (11744735_a_at) / RFU CCDC152 (11751479_a_at) / Fold change /veh CCDC152 (11751479_a_at) / RFU FAM211A (11726209_a_at) / Fold change /veh FAM211A (11726209_a_at) / RFU RGS16 (11746705_a_at) / Fold change /veh RGS16 (11746705_a_at) / RFU VCAN (11755009_s_at) / Fold change /veh VCAN (11755009_s_at) / RFU RHOB (11743442_s_at) / Fold change /veh RHOB (11743442_s_at) / RFU RGS16 (11720943_a_at) / Fold change /veh RGS16 (11720943_a_at) / RFU RGS16 (11720944_at) / Fold change /veh RGS16 (11720944_at) / RFU, VPS4B / Fold change vs veh, VPS4B / RFU, CREB1 / Fold change vs veh, CREB1 / RFU, DNAJC13 / Fold change vs veh, DNAJC13 / RFU, GNAQ / Fold change vs veh, GNAQ / RFU, CDK5R1 / Fold change vs veh, CDK5R1 / RFU, ZRANB3 / Fold change vs veh, ZRANB3 / RFU, CUL4A / Fold change vs veh, CUL4A / RFU, CCNY / Fold change vs veh, CCNY / RFU, UFL1 / Fold change vs veh, UFL1 / RFU, COG3 / Fold change vs veh, COG3 / RFU, DIAPH2 / Fold change vs veh, DIAPH2 / RFU, SKA2 / Fold change vs veh, SKA2 / RFU, AFF3 / Fold change vs veh, AFF3 / RFU, LMF1 / Fold change vs veh, LMF1 / RFU, IPO11 / Fold change vs veh, IPO11 / RFU, DFFB / Fold change vs veh, DFFB / RFU, FOXP1 / Fold change vs veh, FOXP1 / RFU, CARD8 / Fold change vs veh, CARD8 / RFU, STRN3 / Fold change vs veh, STRN3 / RFU, ADK / Fold change vs veh, ADK / RFU, RASSF2 / Fold change vs veh, RASSF2 / RFU, WIPF1 / Fold change vs veh, WIPF1 / RFU, LARP1B / Fold change vs veh, LARP1B / RFU, RASA1 / Fold change vs veh, RASA1 / RFU, RB1 / Fold change vs veh, RB1 / RFU, PPFIA1 / Fold change vs veh, PPFIA1 / RFU, MAT2A / Fold change vs veh, MAT2A / RFU, CCT5 / Fold change vs veh, CCT5 / RFU, WDR92 / Fold change vs veh, WDR92 / RFU, CUX1 / Fold change vs veh, CUX1 / RFU, TTC7A / Fold change vs veh, TTC7A / RFU, TMEM135 / Fold change vs veh, TMEM135 / RFU, DEPTOR / Fold change vs veh, DEPTOR / RFU, CPM / Fold change vs veh, CPM / RFU, DNAJB6 / Fold change vs veh, DNAJB6 / RFU, CACNA2D3 / Fold change vs veh, CACNA2D3 / RFU, DTX4 / Fold change vs veh, DTX4 / RFU, TFCP2 / Fold change vs veh, TFCP2 / RFU, GMCL1 /// GMCL1P1 / Fold change vs veh, GMCL1 /// GMCL1P1 / RFU, AEBP2 / Fold change vs veh, AEBP2 / RFU, SNHG1 /// SNORD22 /// SNORD25 /// SNORD26 /// SNORD27 /// SNORD28 /// SNORD29 /// SNORD31 / Fold change vs veh, SNHG1 /// SNORD22 /// SNORD25 /// SNORD26 /// SNORD27 /// SNORD28 /// SNORD29 /// SNORD31 / Fold change (Aza/veh), C12orf56 (ProbeSet 11735607_a_at) / Fold change (ACY-1035/veh), C12orf56 (ProbeSet 11735607_a_at) / Fold change (Aza/veh), FGFR1OP (ProbeSet 11751329_s_at) / Fold change (ACY-1035/veh), FGFR1OP (ProbeSet 11751329_s_at) / Fold change (Aza/veh), VPS36 (ProbeSet 11739960_a_at) / Fold change (ACY-1035/veh), VPS36 (ProbeSet 11739960_a_at) / RFU SYPL1 (11715823_x_at) / Fold change /veh SYPL1 (11715823_x_at) / RFU IGFBP7 (11715501_s_at) / Fold change /veh IGFBP7 (11715501_s_at) / RFU REEP3 (11722064_at) / Fold change /veh REEP3 (11722064_at) / RFU IGLL1 (11728026_x_at) / Fold change /veh IGLL1 (11728026_x_at): dose or concentration left out as unconfirmed
Settings: ProbeSet 11739696_s_at; LIST D

## Nc1ncn([C@@H]2O[C@H](CO)[C@@H](O)[C@H]2O)c(=O)n1 [azacitidine]
  RFU, AFF3: 345.70 RFU
